Our source for the IC50 values is ChEMBL document CHEMBL2396618, “Macrocyclic inhibitors of 3C and 3C-like proteases of picornavirus, norovirus, and coronavirus” (Bioorg Med Chem Lett, 2013).

For assay [1], the target named is Replicase polyprotein 1a (Severe acute respiratory syndrome-related coronavirus, UniProt P0C6U8). Briefly: Inhibition of SARS coronavirus 3CLpro using Dabcyl-KTSAVLQ/SGFRKME-Edans as substrate preincubated for 30 mins followed by substrate addition by FRET assay.
Assay [2] in a line: Inhibition of norovirus 3CLpro using Edans-DFHLQ/GP-Dabcyl as substrate preincubated for 30 mins followed by substrate addition by FRET assay.
The target in assay [3] is Genome polyprotein (Coxsackievirus B3 (strain Nancy), UniProt P03313). Briefly: Inhibition of Coxsackievirus B3 Nancy 3Cpro.
Sequence of Genome polyprotein (P03313 1541-1723 limits assumed): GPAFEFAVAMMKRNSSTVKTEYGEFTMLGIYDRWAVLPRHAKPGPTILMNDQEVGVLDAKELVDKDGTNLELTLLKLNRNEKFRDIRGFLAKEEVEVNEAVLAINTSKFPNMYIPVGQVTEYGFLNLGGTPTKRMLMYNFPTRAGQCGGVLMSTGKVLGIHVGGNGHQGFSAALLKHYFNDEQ

With `CC(C)C[C@@H]1NC(=O)[C@@H](NC(=O)OCc2ccccc2)Cc2cn(nn2)CCCNC(=O)CC[C@@H](C=O)NC1=O`, the IC50 in assay [1] was 15.5 µM; in assay [2], 5.1 µM; in assay [3] it was 1.8 µM.

A word on the IC50: it is the concentration that inhibits the measured activity by half. A high value points to lower potency.
